Source: patent US20190192548A1, “USE OF CYCLIC PHOSPHATE SUBSTITUTED NUCLEOSIDE DERIVATIVESFOR THE TREATMENT OF VIRAL DISEASES” (MERCK SHARP & DOHME CORP., priority 2016, published 2019)
Where two headings read alike, the source gives them in different places.

Experiments:
replicon cells (1b-Con1) = assay: Replicon activity assay (cell-based anti-HCV activity, replicon RNA by real-time RT-PCR)
Method: To measure cell-based anti-HCV activity of the compounds of the present invention, replicon cells (1b-Con1) are seeded at 5000 cells/well in 96-well plates one day prior to treatment with a compound of the invention. Various concentrations of a test compound of the invention in DMSO are then added to the replicon cells, with the final concentration of
(§1) DMSO at 0.5% and fetal bovine serum at 10% in the assay media. Cells are harvested three days post-dosing, and the replicon RNA level is determined using real-time RT-PCR (Taqman assay) with GAPDH RNA as endogenous control. EC50 values are calculated from experiments with 10 serial twofold dilutions of the inhibitor in triplicate. To measure cytotoxicity in replicon cells of an inhibitor, an MTS assay is performed according to the manufacturer's protocol for CellTiter 96 Aqueous One Solution Cell Proliferation Assay (Promega, Cat # G3580) three days post dosing on cells treated identically as in replicon activity assays. […] Cytotoxicity in other types of cells may be measured using the same MTS protocol.
(§2) Data were obtained using this method for selected compounds of the present invention, and are set forth below in Table 1.

replicon cells = assay: Cytotoxicity assay in replicon cells (MTS, CellTiter 96); format: cell-based; details: three days post dosing, read-out: CC50 (EDU) Range
Method: as §1, §2

[1] = as above; format: cell-based; details: three days post dosing, read-out: CC50 (EDU) Range
Method: as §1, §2

[2] = read-out: EC50 (1b) Range, replicon cells (1b-Con1), replicon RNA level three days post-dosing, GAPDH RNA as control
[3] = Hepatitis C virus, 72 h, read-out: EC50 (1b) Range, replicon cells (1b-Con1), replicon RNA level three days post-dosing, GAPDH RNA as control

| SMILES | EC50 (replicon cells (1b-Con1); [2]) [nM] | CC50 (replicon cells) [nM] | EC50 (replicon cells (1b-Con1); [3]) [nM] | CC50 at 3 days [1] [nM] |
| --- | --- | --- | --- | --- |
| CC(C)OC(=O)[C@H](C)CCOP1(=O)OC[C@H]2O[C@@H](n3ccc(N)nc3=O)C(F)(F)[C@@H]2O1 (single isomer, unassigned) [Compound 7 Diastereomer 2] | < 250 | ≤ 50000 | – | – |
| CCOC(=O)[C@H](C)CCOP1(=O)OC[C@H]2O[C@@H](n3ccc(N)nc3=O)C(F)(F)[C@@H]2O1 (single isomer, unassigned) [Compound 10 Diastereomer 1] | – | – | 250 to 1000 | ≤ 50000 |
| CC(C)OC(=O)[C@@H](C)CCOP1(=O)OC[C@H]2O[C@@H](n3ccc(N)nc3=O)C(F)(F)[C@@H]2O1 (single isomer, unassigned) [Compound 8 Diastereomer 1] | – | – | 250 to 1000 | ≤ 50000 |
| CC(C)OC(=O)[C@H](C)CCOP1(=O)OC[C@H]2O[C@@H](n3ccc(N)nc3=O)C(F)(F)[C@@H]2O1 (single isomer, unassigned) [Compound 7 Diastereomer 1] | – | – | 250 to 1000 | ≤ 50000 |
| CCOC(=O)[C@@H](C)CCOP1(=O)OC[C@H]2O[C@@H](n3ccc(N)nc3=O)C(F)(F)[C@@H]2O1 (single isomer, unassigned) [Compound 9 Diastereomer 1] | – | – | 250 to 1000 | ≤ 50000 |
| CCOC(=O)[C@H](C)CCOP1(=O)OC[C@H]2O[C@@H](n3ccc(N)nc3=O)C(F)(F)[C@@H]2O1 (single isomer, unassigned) [Compound 10 Diastereomer 2] | 250 to 1000 | ≤ 50000 | – | – |
| CCOC(=O)[C@@H](C)CCOP1(=O)OC[C@H]2O[C@@H](n3ccc(N)nc3=O)C(F)(F)[C@@H]2O1 (single isomer, unassigned) [Compound 9 Diastereomer 2] | 250 to 1000 | ≤ 50000 | – | – |
| CC(C)OC(=O)[C@@H](C)CCOP1(=O)OC[C@H]2O[C@@H](n3ccc(N)nc3=O)C(F)(F)[C@@H]2O1 (single isomer, unassigned) [Compound 8 Diastereomer 2] | 250 to 1000 | ≤ 50000 | – | – |
